Measurements reported in ChEMBL document CHEMBL3885881, “DrugMatrix”.

Species: Rattus norvegicus
Experiment: DrugMatrix - Regimen: Daily Repeat
Format: toxicity, organism-based, Sprague-Dawley
Parameters: regimen Daily Repeat, gender Male, age 6-8 weeks
Details: in vivo, po, route oral GAVAGE, vehicle .5 % CMC; for ABSOLUTE BASOPHIL / ABSOLUTE EOSINOPHIL / ABSOLUTE LYMPHOCYTE / ABSOLUTE MONOCYTE / ABSOLUTE SEGMENTED NEUTROPHIL / BASOPHIL / EOSINOPHIL / ERYTHROCYTE COUNT / HEMATOCRIT / HEMOGLOBIN / LEUKOCYTE COUNT / LYMPHOCYTE / MEAN CORPUSCULAR HEMOGLOBIN / MEAN CORPUSCULAR HEMOGLOBIN CONCENTRATION / MEAN CORPUSCULAR VOLUME / MONOCYTE / NEUTROPHIL / NUCLEATED RED BLOOD CELLS / PLATELET COUNT: tissue Blood; for ALANINE AMINOTRANSFERASE / ALBUMIN / ALKALINE PHOSPHATASE / ASPARTATE AMINOTRANSFERASE / BLOOD UREA NITROGEN / CARBON DIOXIDE / CHLORIDE / CHOLESTEROL / CREATINE PHOSPHOKINASE / CREATININE / GLUCOSE / LACTATE DEHYDROGENASE / LIPASE / PHOSPHORUS / POTASSIUM / SODIUM / TOTAL BILIRUBIN / TOTAL PROTEIN / URIC ACID: tissue Plasma
[1] = 0 mg/kg, 72 h, dose level Control, time 3 day
[2] = 0 mg/kg, 120 h, dose level Control, time 5 day
[3] = 100 mg/kg, 72 h, dose level Low, time 3 day

Compound: CCc1ccc(C(=O)C(C)CN2CCCCC2)cc1 (centres undefined) [EPERISONE]
- ABSOLUTE BASOPHIL [1]: 0 CELLS/uL
- ABSOLUTE EOSINOPHIL [1]: 284.5 CELLS/uL
- ABSOLUTE LYMPHOCYTE [1]: 11670.5 CELLS/uL
- ABSOLUTE MONOCYTE [1]: 420.83 CELLS/uL
- ABSOLUTE SEGMENTED NEUTROPHIL [1]: 1024.17 CELLS/uL
- BASOPHIL [1]: 0%
- EOSINOPHIL [1]: 1.67%
- ERYTHROCYTE COUNT [1]: 5.38 x10E6/uL
- HEMATOCRIT [1]: 34.05%
- HEMOGLOBIN [1]: 12.75 G/DL
- LEUKOCYTE COUNT [1]: 13.4 x10E3/uL
- LYMPHOCYTE [1]: 88.33%
- MEAN CORPUSCULAR HEMOGLOBIN [1]: 23.73 pg
- MEAN CORPUSCULAR HEMOGLOBIN CONCENTRATION [1]: 37.43 G/DL
- MEAN CORPUSCULAR VOLUME [1]: 63.4 fL
- MONOCYTE [1]: 2.83%
- NEUTROPHIL [1]: 7.17%
- NUCLEATED RED BLOOD CELLS [1]: 0 /100WBC
- PLATELET COUNT [1]: 1184.67 x10E3/uL
- ALANINE AMINOTRANSFERASE [1]: 45.33 u/L
- ALBUMIN [1]: 4.3 G/DL
- ALKALINE PHOSPHATASE [1]: 388.83 u/L
- ASPARTATE AMINOTRANSFERASE [1]: 84.83 u/L
- BLOOD UREA NITROGEN [1]: 15.5 mg/dL
- CARBON DIOXIDE [1]: 27 mmol/L
- CHLORIDE [1]: 101.8 MEQ/L
- CHOLESTEROL [1]: 76.67 mg/dL
- CREATINE PHOSPHOKINASE [1]: 301 u/L
- CREATININE [1]: 0.21 mg/dL
- GLUCOSE [1]: 168.83 mg/dL
- LACTATE DEHYDROGENASE [1]: 294.83 u/L
- LIPASE [1]: 9.8 u/L
- PHOSPHORUS [1]: 13.25 mg/dL
- POTASSIUM [1]: 6.41 MEQ/L
- SODIUM [1]: 143.72 MEQ/L
- TOTAL BILIRUBIN [1]: 0.22 mg/dL
- TOTAL PROTEIN [1]: 5.98 G/DL
- URIC ACID [1]: 1.5 mg/dL
- ABSOLUTE BASOPHIL [2]: 0 CELLS/uL
- ABSOLUTE EOSINOPHIL [2]: 190.67 CELLS/uL
- ABSOLUTE LYMPHOCYTE [2]: 12549.5 CELLS/uL
- ABSOLUTE MONOCYTE [2]: 276 CELLS/uL
- ABSOLUTE SEGMENTED NEUTROPHIL [2]: 1067.17 CELLS/uL
- BASOPHIL [2]: 0%
- EOSINOPHIL [2]: 1.33%
- ERYTHROCYTE COUNT [2]: 5.66 x10E6/uL
- HEMATOCRIT [2]: 35.92%
- HEMOGLOBIN [2]: 13.65 G/DL
- LEUKOCYTE COUNT [2]: 14.08 x10E3/uL
- LYMPHOCYTE [2]: 89%
- MEAN CORPUSCULAR HEMOGLOBIN [2]: 24.12 pg
- MEAN CORPUSCULAR HEMOGLOBIN CONCENTRATION [2]: 38.03 G/DL
- MEAN CORPUSCULAR VOLUME [2]: 63.47 fL
- MONOCYTE [2]: 2%
- NEUTROPHIL [2]: 7.67%
- NUCLEATED RED BLOOD CELLS [2]: 0.17 /100WBC
- PLATELET COUNT [2]: 1251.67 x10E3/uL
- ALANINE AMINOTRANSFERASE [2]: 43.33 u/L
- ALBUMIN [2]: 4.22 G/DL
- ALKALINE PHOSPHATASE [2]: 365.67 u/L
- ASPARTATE AMINOTRANSFERASE [2]: 83.67 u/L
- BLOOD UREA NITROGEN [2]: 18.17 mg/dL
- CARBON DIOXIDE [2]: 28.67 mmol/L
- CHLORIDE [2]: 103.5 MEQ/L
- CHOLESTEROL [2]: 71.5 mg/dL
- CREATINE PHOSPHOKINASE [2]: 284.5 u/L
- CREATININE [2]: 0.21 mg/dL
- GLUCOSE [2]: 161.67 mg/dL
- LACTATE DEHYDROGENASE [2]: 259.67 u/L
- LIPASE [2]: 9.5 u/L
- PHOSPHORUS [2]: 12.45 mg/dL
- POTASSIUM [2]: 6.49 MEQ/L
- SODIUM [2]: 144.25 MEQ/L
- TOTAL BILIRUBIN [2]: 0.2 mg/dL
- TOTAL PROTEIN [2]: 6.1 G/DL
- URIC ACID [2]: 1.73 mg/dL
- ABSOLUTE BASOPHIL [3]: 0 CELLS/uL
- ABSOLUTE EOSINOPHIL [3]: 0 CELLS/uL
- ABSOLUTE LYMPHOCYTE [3]: 7799.67 CELLS/uL
- ABSOLUTE MONOCYTE [3]: 242.67 CELLS/uL
- ABSOLUTE SEGMENTED NEUTROPHIL [3]: 691 CELLS/uL
- BASOPHIL [3]: 0%
- EOSINOPHIL [3]: 0%
- ERYTHROCYTE COUNT [3]: 5.44 x10E6/uL
- HEMATOCRIT [3]: 34.63%
- HEMOGLOBIN [3]: 12.8 G/DL
- LEUKOCYTE COUNT [3]: 8.73 x10E3/uL
- LYMPHOCYTE [3]: 89.33%
- MEAN CORPUSCULAR HEMOGLOBIN [3]: 23.6 pg
- MEAN CORPUSCULAR HEMOGLOBIN CONCENTRATION [3]: 36.97 G/DL
- MEAN CORPUSCULAR VOLUME [3]: 63.73 fL
- MONOCYTE [3]: 2.67%
- NEUTROPHIL [3]: 8%
- NUCLEATED RED BLOOD CELLS [3]: 0 /100WBC
- PLATELET COUNT [3]: 1233.67 x10E3/uL
- ALANINE AMINOTRANSFERASE [3]: 50 u/L
- ALBUMIN [3]: 4.33 G/DL
- ALKALINE PHOSPHATASE [3]: 470.67 u/L
- ASPARTATE AMINOTRANSFERASE [3]: 82 u/L
- BLOOD UREA NITROGEN [3]: 13.67 mg/dL
- CARBON DIOXIDE [3]: 29.33 mmol/L
- CHLORIDE [3]: 101.5 MEQ/L
- CHOLESTEROL [3]: 90.33 mg/dL
- CREATINE PHOSPHOKINASE [3]: 213.33 u/L
- CREATININE [3]: 0.21 mg/dL
- GLUCOSE [3]: 138.33 mg/dL
- LACTATE DEHYDROGENASE [3]: 128.67 u/L
- LIPASE [3]: 9 u/L
- PHOSPHORUS [3]: 11.63 mg/dL
- POTASSIUM [3]: 6.14 MEQ/L
- SODIUM [3]: 146.7 MEQ/L
- TOTAL BILIRUBIN [3]: 0.3 mg/dL
- TOTAL PROTEIN [3]: 6.07 G/DL
- URIC ACID [3]: 0.97 mg/dL
